As usually defined, the IC50 is the concentration that gives 50% inhibition.

The values below come from patent US11759462B2, “Spirocyclic compounds as tryptophan hydroxylase inhibitors” (priority 2013, dated 2023).

The assay concerns the target T1, Recombinant human TPH1 (MBP tagged) (Homo sapiens, UniProt P17752).
T1 construct: cloning full length human TPH1 cDNA in to a bacterial pMAL-c5E expression vector; made in house; host or cells: E. coli BL21 (DE3)
T1 sequence (P17752 1-444): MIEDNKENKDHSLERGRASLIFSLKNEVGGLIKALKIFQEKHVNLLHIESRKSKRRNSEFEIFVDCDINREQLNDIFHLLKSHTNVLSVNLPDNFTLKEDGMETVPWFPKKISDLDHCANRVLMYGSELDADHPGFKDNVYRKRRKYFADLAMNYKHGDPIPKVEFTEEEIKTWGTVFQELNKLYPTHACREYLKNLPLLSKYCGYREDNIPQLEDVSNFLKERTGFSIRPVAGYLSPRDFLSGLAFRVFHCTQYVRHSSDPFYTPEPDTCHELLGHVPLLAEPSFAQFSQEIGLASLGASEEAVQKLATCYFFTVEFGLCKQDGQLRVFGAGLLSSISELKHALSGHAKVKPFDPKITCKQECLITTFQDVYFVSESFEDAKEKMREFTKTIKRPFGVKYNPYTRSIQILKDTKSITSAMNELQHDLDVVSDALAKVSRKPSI
Briefly: TPH1 in vitro inhibition assay (kinetic fluorescence). The class given is biochemical. The conditions noted are these: read-out: TPH1 Range (TPH1 inhibition IC50). An outline of the steps: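 Final mix: 15 nM MBP-TPH1, 30 μM Trp, 36 μM 6-methyltetrahydropterin, 25 μM ferrous ammonium sulfate, 50 mM MES pH 7.1, 1% DMSO, room temperature.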
Turning to `CCCc1ccc(-c2ccc([C@@H](Oc3cc(N4CCC5(CC4)CN[C@H](C(=O)O)C5)nc(N)n3)C(F)(F)F)cc2)cc1` [Example 55bs, (S)-8-(2-amino-6-((R)-2,2,2-trifluoro-1-(4′-propyl-[1,1′-biphenyl]-4-yl)ethoxy)pyrimidin-4-yl)-2,8-diazaspiro[4.5]decane-3-carboxylic acid], the IC50 was in the range of 300 to 3000 nM.

Consider `Nc1nc(O[C@H](c2ccc(-c3cccc(CO)c3)cc2)C(F)(F)F)cc(N2CCC3(CC2)CN[C@H](C(=O)O)C3)n1` [Example 55bt, (S)-8-(2-amino-6-((R)-2,2,2-trifluoro-1-(3′-(hydroxymethyl)-[1,1′-biphenyl]-4-yl)ethoxy)pyrimidin-4-yl)-2,8-diazaspiro[4.5]decane-3-carboxylic acid], for which the IC50 lay in the range of 300 to 3000 nM.

For `Nc1nc(O[C@H](c2ccc(-c3ccccc3CO)cc2)C(F)(F)F)cc(N2CCC3(CC2)CN[C@H](C(=O)O)C3)n1` [Example 55bu, (S)-8-(2-amino-6-((R)-2,2,2-trifluoro-1-(2′-(hydroxymethyl)-[1,1′-biphenyl]-4-yl)ethoxy)pyrimidin-4-yl)-2,8-diazaspiro[4.5]decane-3-carboxylic acid], the IC50 was 300 to 3000 nM.

As to `CC(C)Oc1ccc(-c2ccc([C@@H](Oc3cc(N4CCC5(CC4)CN[C@H](C(=O)O)C5)nc(N)n3)C(F)(F)F)cc2)cc1` [Example 55bv, (S)-8-(2-amino-6-((R)-2,2,2-trifluoro-1-(4′-isopropoxy-[1,1′-biphenyl]-4-yl)ethoxy)pyrimidin-4-yl)-2,8-diazaspiro[4.5]decane-3-carboxylic acid], the IC50 lay in the range of 300 to 3000 nM.

On to `CN(C)C(=O)c1ccc(-c2ccc([C@@H](Oc3cc(N4CCC5(CC4)CN[C@H](C(=O)O)C5)nc(N)n3)C(F)(F)F)cc2)cc1` [Example 55bw, (S)-8-(2-amino-6-((R)-1-(4′-(dimethylcarbamoyl)-[1,1′-biphenyl]-4-yl)-2,2,2-trifluoroethoxy)pyrimidin-4-yl)-2,8-diazaspiro[4.5]decane-3-carboxylic acid], for which the IC50 lay within 50 to 300 nM.

For `Nc1nc(O[C@H](c2ccc(-c3cccc(C(=O)N4CCCCC4)c3)cc2)C(F)(F)F)cc(N2CCC3(CC2)CN[C@H](C(=O)O)C3)n1` [Example 55bx, (S)-8-(2-amino-6-((R)-2,2,2-trifluoro-1-(3′-(piperidine-1-carbonyl)-[1,1′-biphenyl]-4-yl)ethoxy)pyrimidin-4-yl)-2,8-diazaspiro[4.5]decane-3-carboxylic acid], the half-maximal inhibitory concentration (IC50) lay within 300 to 3000 nM.

As to `CN(C)Cc1ccccc1-c1ccc([C@@H](Oc2cc(N3CCC4(CC3)CN[C@H](C(=O)O)C4)nc(N)n2)C(F)(F)F)cc1` [Example 55by, (S)-8-(2-amino-6-((R)-1-(2′-((dimethylamino)methyl)-[1,1′-biphenyl]-4-yl)-2,2,2-trifluoroethoxy)pyrimidin-4-yl)-2,8-diazaspiro[4.5]decane-3-carboxylic acid], the IC50 lay in the range of 300 to 3000 nM.

Consider `CCc1ccc(-c2ccc([C@@H](Oc3cc(N4CCC5(CC4)CN[C@H](C(=O)O)C5)nc(N)n3)C(F)(F)F)cc2)cc1` [Example 55bz, (S)-8-(2-amino-6-((R)-1-(4′-ethyl-[1,1′-biphenyl]-4-yl)-2,2,2-trifluoroethoxy)pyrimidin-4-yl)-2,8-diazaspiro[4.5]decane-3-carboxylic acid], for which the IC50 fell in the range of 50 to 300 nM.

With `Cn1cnc2cc(-c3ccc([C@@H](Oc4cc(N5CCC6(CC5)CN[C@H](C(=O)O)C6)nc(N)n4)C(F)(F)F)cc3)ccc21` [Example 55c, (S)-8-(2-amino-6-((R)-2,2,2-trifluoro-1-(4-(1-methyl-1H-benzo[d]imidazol-5-yl)phenyl)ethoxy)pyrimidin-4-yl)-2,8-diazaspiro[4.5]decane-3-carboxylic acid], the 50% inhibitory concentration (IC50) was 50 to 300 nM.

In the case of `Nc1nc(O[C@H](c2ccc(-c3cccc(O)c3)cc2)C(F)(F)F)cc(N2CCC3(CC2)CN[C@H](C(=O)O)C3)n1` [Example 55ca, (S)-8-(2-amino-6-((R)-2,2,2-trifluoro-1-(3′-hydroxy-[1,1′-biphenyl]-4-yl)ethoxy)pyrimidin-4-yl)-2,8-diazaspiro[4.5]decane-3-carboxylic acid], the half-inhibitory concentration (IC50) was in the range of 50 to 300 nM.

As to `Nc1nc(O[C@H](c2ccc(-c3ccc(O)cc3)cc2)C(F)(F)F)cc(N2CCC3(CC2)CN[C@H](C(=O)O)C3)n1` [Example 55cb, (S)-8-(2-amino-6-((R)-2,2,2-trifluoro-1-(4′-hydroxy-[1,1′-biphenyl]-4-yl)ethoxy)pyrimidin-4-yl)-2,8-diazaspiro[4.5]decane-3-carboxylic acid], the IC50 was 50 to 300 nM.

As to `COc1ccc(-c2ccc([C@@H](Oc3cc(N4CCC5(CC4)CN[C@H](C(=O)O)C5)nc(N)n3)C(F)(F)F)cc2)c(OC)c1` [Example 55cc, (S)-8-(2-amino-6-((R)-1-(2′,4′-dimethoxy-[1,1′-biphenyl]-4-yl)-2,2,2-trifluoroethoxy)pyrimidin-4-yl)-2,8-diazaspiro[4.5]decane-3-carboxylic acid], the half-maximal inhibitory concentration (IC50) lay within 50 to 300 nM.

For the compound `Nc1nc(O[C@H](c2ccc(-c3ccc(C(F)(F)F)cc3)cc2)C(F)(F)F)cc(N2CCC3(CC2)CN[C@H](C(=O)O)C3)n1` [Example 55cd, (S)-8-(2-amino-6-((R)-2,2,2-trifluoro-1-(4′-(trifluoromethyl)-[1,1′-biphenyl]-4-yl)ethoxy)pyrimidin-4-yl)-2,8-diazaspiro[4.5]decane-3-carboxylic acid], the IC50 fell in the range of 300 to 3000 nM.

With `Nc1nc(O[C@H](c2ccc(-c3ccccc3C(F)(F)F)cc2)C(F)(F)F)cc(N2CCC3(CC2)CN[C@H](C(=O)O)C3)n1` [Example 55ce, (S)-8-(2-amino-6-((R)-2,2,2-trifluoro-1-(2′-(trifluoromethyl)-[1,1′-biphenyl]-4-yl)ethoxy)pyrimidin-4-yl)-2,8-diazaspiro[4.5]decane-3-carboxylic acid], the half-maximal inhibitory concentration (IC50) is 300 to 3000 nM.

As to `Nc1nc(O[C@H](c2ccc(-c3c(F)cccc3F)cc2)C(F)(F)F)cc(N2CCC3(CC2)CN[C@H](C(=O)O)C3)n1` [Example 55cf, (S)-8-(2-amino-6-((R)-1-(2′,6′-difluoro-[1,1′-biphenyl]-4-yl)-2,2,2-trifluoroethoxy)pyrimidin-4-yl)-2,8-diazaspiro[4.5]decane-3-carboxylic acid], the half-maximal inhibitory concentration (IC50) fell in the range of 3000 to 10000 nM.

As to `Cc1cccc(C)c1-c1ccc([C@@H](Oc2cc(N3CCC4(CC3)CN[C@H](C(=O)O)C4)nc(N)n2)C(F)(F)F)cc1` [Example 55cg, (S)-8-(2-amino-6-((R)-1-(2′,6′-dimethyl-[1,1′-biphenyl]-4-yl)-2,2,2-trifluoroethoxy)pyrimidin-4-yl)-2,8-diazaspiro[4.5]decane-3-carboxylic acid], the half-inhibitory concentration (IC50) was 300 to 3000 nM.

Turning to `Cc1ccc(-c2ccc([C@@H](Oc3cc(N4CCC5(CC4)CN[C@H](C(=O)O)C5)nc(N)n3)C(F)(F)F)cc2)cc1C` [Example 55ch, (S)-8-(2-amino-6-((R)-1-(3′,4′-dimethyl-[1,1′-biphenyl]-4-yl)-2,2,2-trifluoroethoxy)pyrimidin-4-yl)-2,8-diazaspiro[4.5]decane-3-carboxylic acid], the half-maximal inhibitory concentration (IC50) lay within 50 to 300 nM.

For the compound `CC(C)(C)c1ccc(-c2ccc([C@@H](Oc3cc(N4CCC5(CC4)CN[C@H](C(=O)O)C5)nc(N)n3)C(F)(F)F)cc2)cc1` [Example 55ci, (S)-8-(2-amino-6-((R)-1-(4′-(tert-butyl)-[1,1′-biphenyl]-4-yl)-2,2,2-trifluoroethoxy)pyrimidin-4-yl)-2,8-diazaspiro[4.5]decane-3-carboxylic acid], the IC50 fell in the range of 300 to 3000 nM.

As for `CC(C)c1ccc(-c2ccc([C@@H](Oc3cc(N4CCC5(CC4)CN[C@H](C(=O)O)C5)nc(N)n3)C(F)(F)F)cc2)cc1` [Example 55cj, (S)-8-(2-amino-6-((R)-2,2,2-trifluoro-1-(4′-isopropyl-[1,1′-biphenyl]-4-yl)ethoxy)pyrimidin-4-yl)-2,8-diazaspiro[4.5]decane-3-carboxylic acid], the IC50 was in the range of 300 to 3000 nM.

On to `CC(C)c1cccc(-c2ccc([C@@H](Oc3cc(N4CCC5(CC4)CN[C@H](C(=O)O)C5)nc(N)n3)C(F)(F)F)cc2)c1` [Example 55ck, (S)-8-(2-amino-6-((R)-2,2,2-trifluoro-1-(3′-isopropyl-[1,1′-biphenyl]-4-yl)ethoxy)pyrimidin-4-yl)-2,8-diazaspiro[4.5]decane-3-carboxylic acid], for which the concentration for half-maximal inhibition (IC50) is 300 to 3000 nM.

Consider `Nc1nc(O[C@H](c2ccc(-c3ccc(Cl)c(Cl)c3)cc2)C(F)(F)F)cc(N2CCC3(CC2)CN[C@H](C(=O)O)C3)n1` [Example 55cl, (S)-8-(2-amino-6-((R)-1-(3′,4′-dichloro-[1,1′-biphenyl]-4-yl)-2,2,2-trifluoroethoxy)pyrimidin-4-yl)-2,8-diazaspiro[4.5]decane-3-carboxylic acid], for which the IC50 lay within 50 to 300 nM.

Take `Nc1nc(O[C@H](c2ccc(-c3ccc(OC(F)(F)F)cc3)cc2)C(F)(F)F)cc(N2CCC3(CC2)CN[C@H](C(=O)O)C3)n1` [Example 55cm, (S)-8-(2-amino-6-((R)-2,2,2-trifluoro-1-(4′-(trifluoromethoxy)-[1,1′-biphenyl]-4-yl)ethoxy)pyrimidin-4-yl)-2,8-diazaspiro[4.5]decane-3-carboxylic acid]: the IC50 fell in the range of 300 to 3000 nM.

On to `Cc1cccc(-c2ccc([C@@H](Oc3cc(N4CCC5(CC4)CN[C@H](C(=O)O)C5)nc(N)n3)C(F)(F)F)cc2)c1C` [Example 55cn, (S)-8-(2-amino-6-((R)-1-(2′,3′-dimethyl-[1,1′-biphenyl]-4-yl)-2,2,2-trifluoroethoxy)pyrimidin-4-yl)-2,8-diazaspiro[4.5]decane-3-carboxylic acid], for which the IC50 is 300 to 3000 nM.
